Results from patent publication US11110158B2, “Prostate-associated antigens and vaccine-based immunotherapy regimens” (Pfizer Inc., priority 2012, dated 2021).

Tests used:
293 cells = experiment: Expression of PSMA constructs in transfected 293 cells by FACS; type: cell-based; settings: 293 cells transfected with PJV7563 vector, stained with mouse anti-PSMA antibody three days later; cell surface expression
Protocol: The expression of the PSMA cytosolic, secreted, and modified antigens was determined by FACS. Mammalian 293 cells were transfected with the PJV7563 PMED vectors encoding the various immunogenic PSMA polypeptides. Three days later, the 293 cells were stained with mouse anti-PSMA antibody, followed with a fluorescent conjugated (FITC) rat anti-mouse secondary antibody.

[1] = tested on: hPSMA full-length protein; experiment: IFN-γ ELISPOT, hPSMA modified versus full-length DNA vaccine in Pasteur (HLA-A2/DR1) transgenic mice; type: in vivo, human
Description: The immune responses induced by DNA vaccination using a construct encoding an immunogenic PSMA polypeptide (the “human PSMA modified antigen” or “hPSMA modified”) consisting 15-750 amino acids (aa) of the native human PSMA protein of SEQ ID NO: 1 were compared with those induced by the native human full-length PSMA protein (hPSMA full length). Groups of female C57BL/6 mice or female Pasteur (HLA-A2/DR1) transgenic mice were primed on day 0 and boosted on days 14, 28 by PMED administration with a 2 μg dose of a DNA vaccine encoding either hPSMA full-length or hPSMA modified protein. Mice were bled and sacrificed on day 35 (7 days after the third vaccination) and T cell immune responses against the hPSMA full-length protein were determined in splenocytes by IFN-γ ELISPOT assay. For C57BL/6 mice, single cell suspensions of 5×10^5 splenocytes from individual animals were plated per well with […] purified hPSMA protein, 5×10^4 TRAMP-C2 cells alone, or TRAMP-C2 cells expressing hPSMA or a PSMA-PSA-PSCA fusion protein. […] Responses in Pasteur mice were also determined using 10 μg/ml purified PSMA protein or 5×10^4 SK-Mel5 cells that had been transduced with Adenoviral vectors expressing a control protein (Ad-eGFP) or the full-length human PSMA protein (Ad-hPSMA). […] The number of IFN-γ SFC was counted by a CTL reader. […]

rhesus PSMA = experiment: IFNγ ELISPOT of PBMCs, rhesus PSMA adenovirus with subcutaneous anti-CTLA-4 in Indian rhesus macaques; type: in vivo; settings: versus vaccine alone
Protocol: Five groups of male Indian rhesus macaques, seven (#1 to 7) per each test group, were immunized with an adenovirus encoding a rhesus PSMA modified polypeptide delivered by bilateral intramuscular injections (2×5e10 V.P.). Immediately following the adenovirus injections, group 1 received vehicle, and groups 2 to 4 received bilateral subcutaneous injections of anti-CTLA-4 antibody (CP-675, 206) at doses 2×25 mg, 2×16.7 mg and 2×8.4 mg respectively in proximity to the vaccine draining lymph node.
Nine days after the immunization, peripheral blood mononuclear cells (PBMCs) were isolated from each animal and were subjected to an IFNγ ELISPOT assay to measure the rhesus PSMA specific T cell responses. Briefly, 4e5 PBMCs from individual animals were plated per well with pools of rhesus PSMA specific peptides (P1, P2, P3 or R1+R2 defined in table 24A) or nonspecific control peptides (human HER2 peptide pool) each at 2 ug/ml in IFNγ ELISPOT plates. The plates were incubated for 16 hrs at 37° C. and 5% CO2 and washed and developed after incubation as per manufacturer's instruction. The number of IFNγ spot forming cells (SFC) were counted by CTL reader. Each condition was performed in duplicates. The average of the duplicates from the background adjusted SFC of the rhesus PSMA specific peptide pools was normalized to the response in 1e6 PBMCs.
A capture antibody specific to IFNγ […]BD Bioscience, #51-2525kc) is coated onto a polyvinylidene fluoride (PVDF) membrane in a microplate overnight at 4° C. The plate is blocked with serum/protein to prevent nonspecific binding to the antibody. After blocking, effector cells (such as splenocytes isolated from immunized mice or PBMCs isolated from rhesus macaques) and targets (such as PSMA peptides from peptide library, target cells pulsed with antigen specific peptides or tumor cells expressing the relevant antigens) are added to the wells and incubated overnight at 37° C. in a 5% CO2 incubator. Cytokine secreted by effector cells are captured by the coating antibody on the surface of the PVDF membrane. […]

Substance	Average mean fluorescent intensity (293 cells)	IFN-γ T cell immune responses to the HLA-A2-restricted CD8+ T cell epitopes ([1]; Example 7, FIG. 27A, day 35, difference between groups not significant)	IFN-γ SFC to the purified hPSMA protein ([1]; Example 7, FIG. 27B, day 35, versus hPSMA full-length vaccine)	rhesus PSMA specific IFNγ T cell response (rhesus PSMA; group 2: 50 mg (2×25 mg) subcutaneous near vaccine draining lymph node, P=0.001)	rhesus PSMA specific IFNγ T cell response (rhesus PSMA; group 3: 33.4 mg subcutaneous, P=0.004)	rhesus PSMA specific IFNγ T cell response (rhesus PSMA; group 4: 16.7 mg subcutaneous, P=0.05)
PSMA modified: membrane-bound polypeptide of amino acids 15-750 of human PSMA, SEQ ID NO: 9; tested as DNA construct	12270	highest magnitude of IFN-γ T cell immune responses	higher frequencies of IFN-γ SFC			
Tremelimumab: fully human IgG2 anti-CTLA-4 monoclonal antibody, CAS 745013-59-6, SEQ ID NOs:42 and 43				significantly enhanced	significantly enhanced	significantly enhanced
